Measurements from ChEMBL document CHEMBL1201862, “PubChem BioAssay data set” (2004).
Where “and” joins values, the source holds several entries; their conditions need not be identical. Equal values may be shown once.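 Grown in 96-well plates, cells were treated for 48 hours with each compound at five concentrations. Insufficient inhibition: endpoint recorded as highest concentration tested. Abbreviation: GI50, concentration required for 50% inhibition of growth.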 Calls of active or inactive are those of the source. Rule as the data show it: active = GI50 up to about 1.1 µM and inactive = higher. Starred links: 1 amine or outer side, 2 acyl side, 3 side chain; linkers in the order of their positions; H or OH if unused. Positions of bridges follow the written chain, without caps; N, C: chain ends. Non-standard residues stand in square brackets, D forms with d. Residues, ends and D or L forms follow the SMILES beside them. Chains are numbered I, II in the order given. Actinocin(9to1) = Cc1c2oc3c(C)ccc(C(=O)[*:1])c3nc-2c(C(=O)[*:2])c(N)c1=O; NMeY = CN[CH](Cc1ccc(O)cc1)C(=O)O; Sar = CNCC(=O)O

Experiments:
Test in all cases: inhibition of tumour cell growth, NCI panel, 48 h
[1] = system: SR
[2] = system: NCI-H226
[3] = system: PC-3
[4] = system: OVCAR-3
[5] = system: BT-549
[6] = system: HCT-15
[7] = system: SNB-75
[8] = system: OVCAR-8
[9] = system: IGROV-1
[10] = system: UACC-257
[11] = system: M14
[12] = system: SNB-19
[13] = system: NCI-H522
[14] = system: CAKI-1
[15] = system: NCI-H460
[16] = system: SF-268
[17] = system: MOLT-4
[18] = system: HL-60
[19] = system: EKVX
[20] = system: MCF7
[21] = system: HOP-92
[22] = system: 786-0
[23] = system: CCRF-CEM
[24] = system: OVCAR-5
[25] = system: LOX IMVI
[26] = system: MDA-N
[27] = system: TK-10
[28] = system: NCI-H23
[29] = system: SN12C
[30] = system: HT-29
[31] = system: Malme-3M
[32] = system: COLO 205
[33] = system: A549
[34] = system: NCI/ADR-RES
[35] = system: OVCAR-4
[36] = system: HCT-116
[37] = system: SK-MEL-5
[38] = system: SF-295
[39] = system: SF-539
[40] = system: SK-OV-3
[41] = system: UACC-62
[42] = system: HOP-62
[43] = system: ACHN
[44] = system: HCC 2998
[45] = system: SW-620
[46] = system: RPMI-8226
[47] = system: K562
[48] = system: KM12
[49] = system: UO-31
[50] = system: U-251
[51] = system: RXF 393
[52] = system: SK-MEL-28
[53] = system: DU-145
[54] = system: MDA-MB-231
[55] = system: Hs-578T
[56] = system: SK-MEL-2
[57] = system: A498
[58] = system: MDA-MB-435

Measured: GI50

CC[N+](C)(CC)CCNC(=O)C(O)(c1ccccc1)c1ccccc1
inactive: [1] > 100 µM | [2] > 100 µM | [3] > 100 µM | [4] > 100 µM | [5] > 100 µM | [7] 35.6 µM | [8] > 100 µM | [9] > 100 µM | [10] > 100 µM | [11] > 100 µM | [12] > 100 µM | [13] > 100 µM | [14] > 100 µM | [15] > 100 µM | [16] > 100 µM | [17] > 100 µM | [18] > 100 µM | [19] > 100 µM | [20] > 100 µM | [21] > 100 µM | [22] > 100 µM | [23] > 100 µM | [24] > 100 µM | [26] > 100 µM | [27] > 100 µM | [28] > 100 µM | [29] > 100 µM | [30] > 100 µM | [31] > 100 µM | [32] > 100 µM | [33] > 100 µM | [34] > 100 µM | [35] > 100 µM | [36] > 100 µM | [37] > 100 µM | [38] > 100 µM | [39] > 100 µM | [40] > 100 µM | [41] > 100 µM | [42] > 100 µM | [43] > 100 µM | [44] > 100 µM | [45] > 100 µM | [46] > 100 µM | [47] > 100 µM | [48] 72.9 µM | [49] > 100 µM | [50] > 100 µM | [51] > 100 µM | [52] > 100 µM | [53] > 100 µM
active: [25] 0.2 µM
> 100 µM: [6]

CCN1CC2=C(NC(=S)NC2c2ccc(Cl)cc2)/C(=C/c2ccc(Cl)cc2)C1 (stereo unspecified)
54.7 µM: [6]
inactive: [2] > 100 µM | [3] 46.5 µM | [54] > 100 µM | [55] 57.5 µM | [4] 61.5 µM | [5] > 100 µM | [7] 23.1 µM | [8] 88.5 µM | [9] 42 µM | [10] > 100 µM | [11] > 100 µM | [12] 68.9 µM | [13] > 100 µM | [14] 35.7 µM | [15] 18.5 µM | [16] 77.4 µM | [17] 10.5 µM | [18] 23.7 µM | [19] > 100 µM | [20] > 100 µM | [22] 45.6 µM | [23] 14.5 µM | [24] > 100 µM | [25] > 100 µM | [26] > 100 µM | [56] > 100 µM | [27] > 100 µM | [28] > 100 µM | [30] > 100 µM | [57] 23 µM | [31] 97.3 µM | [32] > 100 µM | [33] 29.7 µM | [34] > 100 µM | [35] > 100 µM | [36] 62.5 µM | [37] 97.7 µM | [38] 67.1 µM | [40] > 100 µM | [41] 29.3 µM | [42] > 100 µM | [43] 55.7 µM | [44] 53.8 µM | [45] 67.1 µM | [46] 17.5 µM | [58] 61.9 µM | [47] 19.5 µM | [48] > 100 µM | [49] > 100 µM | [50] 45.3 µM | [51] > 100 µM | [52] 24.4 µM | [53] > 100 µM

COC(C)(C)C1(O)CCC(C)CC1=O (stereo unspecified)
inactive: [1] > 100 µM | [3] > 100 µM | [55] > 100 µM | [4] > 100 µM | [5] > 100 µM | [8] > 100 µM | [9] > 100 µM | [12] > 100 µM | [14] > 100 µM | [15] > 100 µM | [17] > 100 µM | [18] 85.7 µM | [21] > 100 µM | [22] > 100 µM | [26] > 100 µM | [30] > 100 µM | [32] > 100 µM | [37] > 100 µM | [40] > 100 µM | [44] > 100 µM | [49] > 100 µM | [50] > 100 µM | [51] > 100 µM

O=C(O)c1ccccc1/N=N\c1c(O)c(S(=O)(=O)O)cc2cc(S(=O)(=O)O)ccc12
active: [2] 0.0239 µM | [5] 0.201 µM | [13] 0.0231 µM | [18] < 0.01 µM | [31] 0.0711 µM | [34] 1.06 µM | [35] 0.0962 µM
inactive: [55] 1.97 µM | [11] 3.83 µM | [12] 2.81 µM | [15] > 100 µM | [16] 1.8 µM | [20] > 100 µM | [25] > 100 µM | [26] 2.41 µM | [57] > 100 µM | [32] 1.2 µM | [33] 1.82 µM | [36] 1.63 µM | [37] 4.72 µM | [44] > 100 µM | [45] 1.85 µM | [46] 1.35 µM | [58] 2.65 µM | [50] 1.48 µM

Cc1c2oc3c(C)ccc(C(=O)NC4C(=O)NC(C(C)C)C(=O)N5CCCC5C(=O)N(C)CC(=O)N(C)C(Cc5ccc(O)cc5)C(=O)OC4C)c3nc-2c(C(=O)NC2C(=O)NC(C(C)C)C(=O)N3CCCC3C(=O)N(C)CC(=O)N(C)C(Cc3ccc(O)cc3)C(=O)OC2C)c(N)c1=O (stereo unspecified) (I: TVP[Sar][NMeY] / II: TVP[Sar][NMeY]; ester I:1-I:C, II:1-II:C; linker I:N-II:N via Actinocin(9to1); configuration not given here)
active: [2] 20.6 nM and 39.3 nM | [55] 3.71 nM and 4.25 nM | [5] 15 nM and 17.3 nM | [9] 6.05 nM and 7.46 nM | [13] 2.25 nM and 4.33 nM | [16] 11 nM and 17.7 nM | [18] 4.3 nM and 5.39 nM | [20] 1.89 nM and 2.16 nM | [56] 9.06 nM and 13.1 nM | [29] 5.69 nM and 11 nM | [35] 43 nM and 42.6 nM | [39] 12.4 nM and 15.3 nM | [46] 8.59 nM and 7.03 nM | [48] 13.2 nM and 17.1 nM

COc1cc(/C=C(\C#N)c2ccccn2)cc(Br)c1O
inactive: [1] 22.7 µM | [2] 72.6 µM | [3] 68.1 µM | [4] 31.8 µM | [5] 34.1 µM | [7] 37 µM | [8] 65.3 µM | [9] 54.7 µM | [10] 48.8 µM | [11] 34.2 µM | [12] 39 µM | [13] 27.5 µM | [14] 48.5 µM | [15] 36.3 µM | [16] 51.4 µM | [17] 35 µM | [18] 24 µM | [19] 97.5 µM | [20] 24.4 µM | [22] 68.7 µM | [23] 31.3 µM | [24] > 100 µM | [26] > 100 µM | [56] 32.9 µM | [27] > 100 µM | [28] 31 µM | [29] 45.2 µM | [30] 40.1 µM | [31] 26.4 µM | [32] 35.5 µM | [33] 58.6 µM | [34] 20.9 µM | [35] > 100 µM | [36] > 100 µM | [37] 40.1 µM | [38] 37.8 µM | [39] 31.3 µM | [40] 55.1 µM | [41] 55.7 µM | [42] 28.8 µM | [43] 97.7 µM | [44] 36.8 µM | [45] 18.4 µM | [46] 40.9 µM | [47] 4.48 µM | [48] 36.1 µM | [49] 58.5 µM | [50] 28 µM | [51] 46.2 µM | [52] 26.8 µM | [53] > 100 µM
21.9 µM: [6]
